Data taken from US20080119508A1, “Multi-Route Administration Of Immune Response Modifier Compounds” (3M INNOVATIVE PROPERTIES COMPANY, priority 2004, published 2008).

Test system: mouse colon carcinoma-26 cells (MC26) expressing luciferase
Test: MC26-luciferase intradermal tumor model, in vivo photon counts (tumor growth index)
Design: species or system Balb/c mice
Settings: combination of topical 5% IRM1 (30 microliters at tumor site) and subcutaneous IRM1 10 mg/kg, compared with single routes and vehicles; day 6 results in FIG. 1
Method: Mice were divided into five groups: topical vehicle, subcutaneous vehicle (SQ vehicle), IRM1 topical (topical IRM1), IRM1 subcutaneous (SQ IRM1), and IRM1 topical and subcutaneous (topical+SQ IRM1). Eighteen hours after injection of the cells, 30 microliters of vehicle or 5% IRM1 topical formulations, described in Table 3, was applied to the tumor site. Six hours later, mice were injected subcutaneously with 10 millograms per kilogram of IRM1 in a 1 milligram per milliliter IRM1, 0.03M citrate buffered saline solution or a vehicle 0.03M citrate buffered saline solution. On days 1, 5, and 6 mice were anesthetized with vaporized 3% isoflurane and in vivo photon counts of luciferin were measured using a Xenogen IVIS imaging system (Alameda, Calif.) following the manufacturer's protocol. The tumor growth index for each treatment group was calculated by dividing each group's day 5 or day 6 tumor photon counts by their day 1 tumor photon counts.

Structure (SMILES): CCc1nc2c(N)nc3ccccc3c2n1CCCCNS(C)(=O)=O [IRM1, N-[4-(4-amino-2-ethyl-1H-imidazo[4,5-c]quinolin-1-yl)butyl]methanesulfonamide]
- tumor growth index (day 5 or day 6 tumor photon counts divided by day 1 tumor photon counts): surprising benefit
